Data taken from patent publication US10058587B2, “Peptide composition for cancer treatment by inhibiting TRPV6 calcium channel activity” (priority 2008, dated 2018).
Where no end group is shown, it is not given here.

Legend:
[1] = system: MV-4-11; assay: Apoptosis and cell viability in AML cell line (Example 13); assay type: cell-based, human; conditions: 0, 10 and 100 uM, 5 to 7 days
Experimental: (§1) For this work, the concentrations of SorC13 and SorC27 used are 0 uM, 10 uM and 100 uM. The experiments extend over a 5 to 7 day period. All measurements are done in quadruplicate with both a blank (no cells) and control (vehicle, no peptide) used to correct the test measurements. The time-response data, and the dose-response data are plotted as means±standard error of the mean.
The cell line MV-4-11 (from ATCC […]) is grown under the recommended conditions and in culture media recommended by ATCC. The cell lines were cultured under sterile conditions at 37° C., in a humidified 5% CO2 atmosphere.
(§2) Induction of apoptosis and attendant decrease is observed in cell viability in the cancer cell lines. From the large increases in the activities of the caspase3/7 activity, it is clear that there is a time dependent effect and a dose dependent effect on the induction of apoptosis.

[2] = system: SKOV3 ovarian cancer cell line; assay: Induction of apoptosis (APO-ONE caspase 3/7) and cell viability (CellTiter Blue); assay type: cell-based, human; parameters: key to Decline in cell viability: decreased (+); or not (−); conditions: for apoptosis (treatment:control ratio) compared with CAT cocktail: CAT = 10 uM Paclitaxel, 20 mM carboplatin
Experimental: SKOV-3 was cultured in […] medium supplemented with 1.5 mM L-glutamine, 2.2 g/L sodium bicarbonate and 10% (v/v) fetal bovine serum.
(§3) The levels of apoptotic induction and cell viability were determined by multiplexing the measurements for single samples. CellTiter Blue and APO-ONE assay systems from Promega allows the determination of cell viability correlated to cell number, and induction of apoptosis. This protocol uses a fluorgenic peptide that contains a peptide recognition-sequence for caspase 3 and caspase 7, […] proteolytic enzymes of the apoptosis cascade. The CellTiter Blue reagent was added to wells in a 96-well plate containing cells under test, immediately after addition of peptide solution or vehicle. About 5000 cells were plated into the wells the day before. At the chosen time (Day 1, Day 2 etc.) the fluorescence was measured at 590 nm (emission) after excitation at 560 nm. The caspase 3/7 activity was measured (485 nm Ex/527 nm Em) in the same wells after adding 120 uL of the Apo-ONE reagent, freeze fracturing at −80° C. for 1 hr, and incubating for 1 hr at room temperature.
(§4) For this work, the concentrations of SorC13 and SorC27 used were 0 uM, 1 uM, 10 uM and 100 uM. The experiments extended over a 5 to 7 day period. All measurements were done in quadruplicate with both a blank (no cells) and control (vehicle, no peptide) used to correct the test measurements. The time-response data, and the dose-response data were plotted as means±standard error of the mean. Any statistical comparisons were done with the Student's t-test or by ANOVA analysis over the dose course. The level of statistical significance was considered to be the 95% confidence interval (i.e., p≤0.05).
To compare the effect of the two SorC-peptides against the gold-standard treatment for ovarian cancers SorC13 or SorC27 was compared to treatment with a carboplatin and taxol (CAT) cocktail (10 uM Paclitaxel, 20 mM carboplatin) using the APO-ONE assay, which measures the combined activities of caspase 3 and caspase 7. Because of the mixed treatment (CAT), the effects were compared in terms of the ratio of treatment:control. If no effect was noted then the ratio=1. Comparisons of the treatment:control ratios were examined with the Student's t-test at a confidence level of 95%. Ratios of larger than a value of unity indicated a positive effect. The effects are illustrated in FIG. 5.

[3] = system: MCF 7 breast cancer cell line; assay: as above; assay type: cell-based, human
Experimental: MCF-7, MDA-MB-231, MDA-MB-415, MDA-MB-468 were grown in DMEM modified with 10% (v/v) fetal bovine serum, 2 mM L-glutamine and 50 ug/mL each of penicillin and streptomycin.
as §3, §4
To benchmark the effect of both C-type peptides to the gold-standard treatment presently used against breast cancer (Paclitaxel), SorC13, SorC27 and Paclitaxel (10 uM) were compared. Both the APO-ONE assay (Promega) and the CellTiter Blue were used on the panel of breast cancer cell lines. The data were compared directly in terms of mean response and tested for significant difference.

[4] = system: PC3 and LnCaP clone FGC; assay: Apoptosis and cell viability in prostate cancer cell lines (Example 10); assay type: cell-based, human; conditions: 0, 10 and 100 uM, 5 to 7 days
Experimental: as §1
The cell lines PC3 (from ATCC CRL-1435) and LnCaP clone FGC (from ATCC CRL-1740), obtained from the American Type Culture Collection (ATCC) and grown under the recommended conditions and in culture media recommended by ATCC. The cell lines are cultured under sterile conditions at 37° C., in a humidified 5% CO2 atmosphere.
as §2

[5] = system: MCF 10A non-cancerous breast cell line; assay: Induction of apoptosis (APO-ONE caspase 3/7) and cell viability (CellTiter Blue); assay type: cell-based, human; parameters: key to Decline in cell viability: cell viability decreased (+); or not (−)
Experimental: (§5) MCF-10A, MCF-12A were cultured in 50% DMEM plus 50% Ham's F12 modified with 2 mM L-glutamine, 1 mM sodium pyruvate, 0.01 mg/mL bovine insulin, 500 ng/mL hydrocortisone, 50 ug/mL of penicillin and streptomycin. The combined medium was supplemented with 5% (v/v) fetal bovine serum.
as §3, §4

[6] = system: MCF 12A non-cancerous breast cell line; assay: as above; assay type: cell-based, human; parameters: key to Decline in cell viability: cell viability decreased (+); or not (−)
Experimental: as §5, §3, §4

[7] = system: NIH-OVCAR-3 and SKOV3 cells; assay: Ovarian adenocarcinoma xenograft model (Example 14, general results); assay type: in vivo, NOD/SCID mice; conditions: 400 mg/kg body weight
Experimental: Optionally, to implant NIH-OVCAR-3 or SKOV3 tumor cells into NOD/SCID mice, cell cultures are centrifuged to pellet the cells, the supernatant is aspirated, the cell pellet is resuspended in 10 ml of growth media and the cell number is determined using a hemocytometer. The cells are then washed in appropriate media and re-suspended at a concentration of 5×10^7 cells/ml in media. Using a 27 gauge needle and 1 cc syringe, 0.1 ml of the cell suspension is injected subcutaneously into the flanks of the mice. Tumors are then permitted to develop in vivo until the majority reach 100-200 mm^3 in tumor volume, which typically requires 1-2 weeks following implantation. These tumors are used to produce tissue subcutaneous implants into NOD/SCID mice which after 2 days are treated with either the test peptides or CAT.
Tumor volumes (V) are calculated by caliper measurement using standard measurements of the width (W), length (L) and thickness (T) of tumors. Animals are randomized into treatment groups so that the median tumor volumes of each group were similar at the start of dosing. % T/C values, as a measure of efficacy, are determined where C refers to volume of control or untreated tumor, and T refers to volume of treated tumor.
Animals are intraperitoneally (i.p.) injected with this formulation at 10 ml per kg body weight on a schedule.

EGKLSSNDTEGGLCKEFLHPSKVDLPR [SorC27]
induction of apoptosis and cell viability [1]: induces apoptosis and decreases cell viability | apoptosis (treatment:control ratio) compared with CAT cocktail [2]: produced apoptosis sooner and more intensely than the CAT cocktail | Apoptosis Index (1 = no effect) ([2]; Day 2, SorC27 10 uM): 2.7 | Apoptosis Index (1 = no effect) ([2]; Day 2, SorC27 100 uM): 1.5 | Apoptosis Index (1 = no effect) ([2]; Day 3, SorC27 1 uM): 1.7 | Apoptosis Index (1 = no effect) ([2]; Day 3, SorC27 10 uM): 2.4 | Apoptosis Index (1 = no effect) ([2]; Day 3, SorC27 100 uM): 2.7 | Decline in cell viability ([2]; SorC27): + | Apoptosis Index (1 = no effect) ([3]; Day 2, SorC27 10 μM): 1.0 | Apoptosis Index (1 = no effect) ([3]; Day 2, SorC27 100 μM): 2.8 | Apoptosis Index (1 = no effect) ([3]; Day 3, SorC27 10 μM): 2.9 | Apoptosis Index (1 = no effect) ([3]; Day 3, SorC27 100 μM): 4.6 | induction of apoptosis compared with Paclitaxel (10 uM) ([3]; SorC27 10 uM): more effective at inducing a faster and more intense apoptotic cascade than Paclitaxel | induction of apoptosis and cell viability [4]: induces apoptosis and decreases cell viability | Apoptosis Index (1 = no effect) ([5]; SorC27 100 μM): 1.0 | Decline in cell viability ([5]; SorC27 100 μM): − | Apoptosis Index (1 = no effect) ([6]; SorC27 100 μM): 1.0 | Decline in cell viability ([6]; SorC27 100 μM): − | growth rate of tumor cells [7]: substantially decreases the growth rate

KEFLHPSKVDLPR [SorC13, KEFLHPSKVDLPR]
induction of apoptosis and cell viability [1]: induces apoptosis and decreases cell viability | apoptosis (treatment:control ratio) compared with CAT cocktail [2]: produced earlier and more intense apoptosis cascade than the CAT cocktail | Apoptosis Index (1 = no effect) ([2]; Day 4, SorC13 100 uM): 2.2 | Apoptosis Index (1 = no effect) ([2]; Day 5, SorC13 100 uM): 2.7 | Decline in cell viability ([2]; Day 5, SorC13 100 uM): + | Apoptosis Index (1 = no effect) ([3]; SorC13 1 uM): 1.2 | Apoptosis Index (1 = no effect) ([3]; SorC13 10 uM): 1.1 | Apoptosis Index (1 = no effect) ([3]; SorC13 100 uM): 2.4 | induction of apoptosis and cell viability [4]: induces apoptosis and decreases cell viability | Apoptosis Index (1 = no effect) ([5]; SorC13 100 uM): 1.0 | Decline in cell viability ([5]; SorC13 100 uM): − | Apoptosis Index (1 = no effect) ([6]; SorC13 100 uM): 1.0 | Decline in cell viability ([6]; SorC13 100 uM): − | growth rate of tumor cells [7]: substantially decreases the growth rate
